Test results reported in US8653263B2 (Janssen Pharmaceutica, priority 2009, dated 2014).

These molecules were tested against human orexin-2 receptor (Homo sapiens (Human), UniProt O43614) (assay: Human orexin 2 receptor radioligand binding ([3H]-EMPA competition)). Details: HEK293 cells stably expressing human orexin-2 receptor; [3H]-EMPA 5 nM final; apparent Ki=IC50/(1+C/Kd), Kd=2 nM; read-out: OR 2 Ki.
Chain of human orexin-2 receptor (O43614 whole entry): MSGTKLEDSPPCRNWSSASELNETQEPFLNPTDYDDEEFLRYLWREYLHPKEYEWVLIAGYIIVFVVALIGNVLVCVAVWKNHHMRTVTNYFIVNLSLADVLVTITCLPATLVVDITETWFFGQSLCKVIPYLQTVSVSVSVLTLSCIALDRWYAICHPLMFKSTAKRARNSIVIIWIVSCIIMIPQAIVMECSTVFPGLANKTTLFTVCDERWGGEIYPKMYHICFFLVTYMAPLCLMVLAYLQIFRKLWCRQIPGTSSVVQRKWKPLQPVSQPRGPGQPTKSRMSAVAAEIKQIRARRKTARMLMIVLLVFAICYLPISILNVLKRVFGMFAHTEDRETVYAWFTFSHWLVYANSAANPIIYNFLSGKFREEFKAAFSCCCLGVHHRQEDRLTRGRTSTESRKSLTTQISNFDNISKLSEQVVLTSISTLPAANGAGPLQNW
With COc1cc(N2CC3CN(C(=O)c4c(F)cccc4-n4nccn4)CC3C2)nc(N(C)C)n1 (stereo not drawn) [Example 1, 4-[5-{[2-Fluoro-6-(2H-1,2,3-triazol-2-yl)phenyl]carbonyl}hexahydropyrrolo[3,4-c]pyrrol-2(1H)-yl]-6-methoxy-N,N-dimethylpyrimidin-2-amine] the Ki was 37 nM. CN(C)c1cc(N2CC3CN(C(=O)c4ccccc4-n4nccn4)CC3C2)nc(C(F)(F)F)n1 (stereo not drawn) [Example 2, N,N-Dimethyl-6-[5-{[2-(2H-1,2,3-triazol-2-yl)phenyl]carbonyl}hexahydropyrrolo[3,4-c]pyrrol-2(1H)-yl]-2-(trifluoromethyl)pyrimidin-4-amine] gave a Ki of 33 nM. CN(C)c1cc(N2CC3CN(C(=O)c4c(F)cccc4-n4nccn4)CC3C2)nc(C(F)(F)F)n1 (stereo not drawn) [Example 3, 6-[5-{[2-Fluoro-6-(2H-1,2,3-triazol-2-yl)phenyl]carbonyl}hexahydropyrrolo[3,4-c]pyrrol-2(1H)-yl]-N,N-dimethyl-2-(trifluoromethyl)pyrimidin-4-amine] was tested, and the Ki was 42 nM. With COc1cc(N2CC3CN(C(=O)c4cc(F)ccc4-n4nccn4)CC3C2)nc(N(C)C)n1 (stereo not drawn) [Example 4, 4-[5-{[5-Fluoro-2-(2H-1,2,3-triazol-2-yl)phenyl]carbonyl}hexahydropyrrolo[3,4-c]pyrrol-2(1H)-yl]-6-methoxy-N,N-dimethylpyrimidin-2-amine] the Ki was 65 nM. In the case of COc1cc(N2CC3CN(C(=O)c4ccccc4-n4nccn4)CC3C2)nc(N(C)C)n1 (stereo not drawn) [Example 5, 4-Methoxy-N,N-dimethyl-6-[5-{[2-(2H-1,2,3-triazol-2-yl)phenyl]carbonyl}hexahydropyrrolo-[3,4-c]pyrrol-2(1H)-yl]pyrimidin-2-amine], the Ki is reported as 14 nM. For CN(C)c1cc(N2CC3CN(C(=O)c4ccc(F)cc4-n4nccn4)CC3C2)nc(C(F)(F)F)n1 (stereo not drawn) [Example 6, 6-[5-{[4-Fluoro-2-(2H-1,2,3-triazol-2-yl)phenyl]carbonyl}hexahydropyrrolo[3,4-c]pyrrol-2(1H)-yl]-N,N-dimethyl-2-(trifluoromethyl)pyrimidin-4-amine], the Ki was 67 nM. For COc1cc(N2CC3CN(C(=O)c4ccc(F)cc4-n4nccn4)CC3C2)nc(N(C)C)n1 (stereo not drawn) [Example 7, 4-[5-{[4-Fluoro-2-(2H-1,2,3-triazol-2-yl)phenyl]carbonyl}hexahydropyrrolo[3,4-c]pyrrol-2(1H)-yl]-6-methoxy-N,N-dimethylpyrimidin-2-amine], the Ki was 42 nM. Cc1cc(C)nc(N2CC3CN(C(=O)c4sccc4-n4cccc4)CC3C2)n1 (stereo not drawn) [Example 8, 2-(4,6-Dimethylpyrimidin-2-yl)-5-{[3-(1H-pyrrol-1-yl)thiophen-2-yl]carbonyl}octahydro-pyrrolo[3,4-c]pyrrole] was tested, and the Ki was 542 nM. Work on CN(C)c1cc(N2CC3CN(C(=O)c4cc(F)ccc4-n4nccn4)CC3C2)nc(C(F)(F)F)n1 (stereo not drawn) [Example 9, 6-[5-{[5-Fluoro-2-(2H-1,2,3-triazol-2-yl)phenyl]carbonyl}hexahydropyrrolo[3,4-c]pyrrol-2(1H)-yl]-N,N-dimethyl-2-(trifluoromethyl)pyrimidin-4-amine] yielded a Ki of 101 nM. Cc1cc(C)nc(N2CC3CN(C(=O)c4ccnn4-c4ccccc4)CC3C2)n1 (stereo not drawn) [Example 10, 2-(4,6-Dimethylpyrimidin-2-yl)-5-[(1-phenyl-1H-pyrazol-5-yl)carbonyl]octahydropyrrolo[3,4-c]pyrrole] showed a Ki of 170 nM. For Cc1cc(C)nc(N2CC3CN(C(=O)c4sccc4-c4ccccc4)CC3C2)n1 (stereo not drawn) [Example 12, 2-(4,6-Dimethylpyrimidin-2-yl)-5-[(3-phenylthiophen-2-yl)carbonyl]octahydropyrrolo[3,4-c]pyrrole], the Ki was 46 nM. Molecule Cc1cc(C)nc(N2CC3CN(C(=O)c4occc4-c4ccccc4)CC3C2)n1 (stereo not drawn) [Example 13, 2-(4,6-Dimethylpyrimidin-2-yl)-5-[(3-phenylfuran-2-yl)carbonyl]octahydropyrrolo[3,4-c]pyrrole] has a Ki of 89 nM. In the case of Cc1cc(C)nc(N2CC3CN(C(=O)c4ccccc4-c4nnc[nH]4)CC3C2)n1 (stereo not drawn) [Example 14, 2-(4,6-Dimethylpyrimidin-2-yl)-5-{[2-(1H-1,2,4-triazol-5-yl)phenyl]carbonyl}octahydro-pyrrolo[3,4-c]pyrrole], the Ki is reported as 28 nM. With COc1ccc(C(=O)N2CC3CN(c4nc5ccc(F)cc5s4)CC3C2)c(OC)c1 (stereo not drawn) [Example 16, 2-{5-[(2,4-Dimethoxyphenyl)carbonyl]hexahydropyrrolo[3,4-c]pyrrol-2(1H)-yl}-6-fluoro-1,3-benzothiazole] the Ki was 300 nM. COc1ccc(C(=O)N2CC3CN(c4nc5ccccc5s4)CC3C2)c(OC)c1 (stereo not drawn) [Example 17, 2-{5-[(2,4-Dimethoxyphenyl)carbonyl]hexahydropyrrolo[3,4-c]pyrrol-2(1H)-yl}-1,3-benzothiazole] was tested, and the Ki was 730 nM. For O=C(c1ccccc1-n1cccn1)N1CC2CN(c3cnc4ccccc4n3)CC2C1 (stereo not drawn) [Example 18, 2-[5-{[2-(1H-Pyrazol-1-yl)phenyl]carbonyl}hexahydropyrrolo[3,4-c]pyrrol-2(1H)-yl]quinoxaline], the Ki was 519 nM. O=C(c1ccccc1-c1cccs1)N1CC2CN(c3cnc4ccccc4n3)CC2C1 (stereo not drawn) [Example 19, 2-{5-[(2-Thiophen-2-ylphenyl)carbonyl]hexahydropyrrolo[3,4-c]pyrrol-2(1H)-yl}quinoxaline] showed a Ki of 24 nM. O=C(c1cccc2c1OCCO2)N1CC2CN(c3nccc(-c4ccccc4)n3)CC2C1 (stereo not drawn) [Example 21, 2-(2,3-Dihydro-1,4-benzodioxin-5-ylcarbonyl)-5-(4-phenylpyrimidin-2-yl)octahydropyrrolo[3,4-c]pyrrole] was tested, and the Ki was 352 nM. For O=C(c1ccccc1-c1cccs1)N1CC2CN(c3nccc(-c4ccccc4)n3)CC2C1 (stereo not drawn) [Example 22, 2-(4-Phenylpyrimidin-2-yl)-5-[(2-thiophen-2-ylphenyl)carbonyl]octahydro-pyrrolo[3,4-c]pyrrole], the Ki was 70 nM. O=C(c1ccccc1-n1cccn1)N1CC2CN(c3nccc(-c4ccccc4)n3)CC2C1 (stereo not drawn) [Example 23, 2-(4-Phenylpyrimidin-2-yl)-5-{[2-(1H-pyrazol-1-yl)phenyl]carbonyl}octahydro-pyrrolo[3,4-c]pyrrole] was tested, and the Ki was 364 nM. O=C(c1ccccc1-n1cccc1)N1CC2CN(c3nccc(-c4ccccc4)n3)CC2C1 (stereo not drawn) [Example 24, 2-(4-Phenylpyrimidin-2-yl)-5-{[2-(1H-pyrrol-1-yl)phenyl]carbonyl}octahydro-pyrrolo[3,4-c]pyrrole] showed a Ki of 415 nM. Cc1ccc2ccccc2c1C(=O)N1CC2CN(c3nccc(-c4ccccc4)n3)CC2C1 (stereo not drawn) [Example 25, 2-[(2-Methylnaphthalen-1-yl)carbonyl]-5-(4-phenylpyrimidin-2-yl)octahydropyrrolo[3,4-c]pyrrole] was tested, and the Ki was 110 nM. N#Cc1ccccc1C(=O)N1CC2CN(c3cnc4ccccc4n3)CC2C1 (stereo not drawn) [Example 26, 2-(5-Quinoxalin-2-yl-hexahydro-pyrrolo[3,4-c]pyrrole-2-carbonyl)-benzonitrile] showed a Ki of 9000 nM. O=C(c1ccccc1-n1cccc1)N1CC2CN(c3cnc4ccccc4n3)CC2C1 (stereo not drawn) [Example 27, 2-[5-{[2-(1H-Pyrrol-1-yl)phenyl]carbonyl}hexahydropyrrolo[3,4-c]pyrrol-2(1H)-yl]quinoxaline] was tested, and the Ki was 740 nM. In the case of O=C(c1ccccc1-c1ccc(F)cc1)N1CC2CN(c3cnc4ccccc4n3)CC2C1 (stereo not drawn) [Example 28, 2-{5-[(4′-Fluorobiphenyl-2-yl)carbonyl]hexahydropyrrolo[3,4-c]pyrrol-2(1H)-yl}quinoxaline], the Ki is reported as 575 nM. O=C(c1ccccc1-c1cccc(F)c1)N1CC2CN(c3cnc4ccccc4n3)CC2C1 (stereo not drawn) [Example 29, 2-{5-[(3′-Fluorobiphenyl-2-yl)carbonyl]hexahydropyrrolo[3,4-c]pyrrol-2(1H)-yl}quinoxaline] was tested, and the Ki was 135 nM. Molecule Cc1ccccc1C(=O)N1CC2CN(c3cnc4ccccc4n3)CC2C1 (stereo not drawn) [Example 30, 2-{5-[(2-Methylphenyl)carbonyl]hexahydropyrrolo[3,4-c]pyrrol-2(1H)-yl}quinoxaline] has a Ki of 790 nM. For O=C(c1ccccc1-c1ccccc1)N1CC2CN(c3nccc(-c4ccco4)n3)CC2C1 (stereo not drawn) [Example 31, 2-(Biphenyl-2-ylcarbonyl)-5-(4-furan-2-ylpyrimidin-2-yl)octahydropyrrolo[3,4-c]pyrrole], the Ki was 425 nM. Cc1ccnc(N2CC3CN(C(=O)c4ccccc4-c4cccs4)CC3C2)n1 (stereo not drawn) [Example 32, 2-(4-Methylpyrimidin-2-yl)-5-[(2-thiophen-2-ylphenyl)carbonyl]octahydro-pyrrolo[3,4-c]pyrrole] showed a Ki of 47 nM. Work on O=C(c1ccccc1-c1cccs1)N1CC2CN(c3ccc4ccccc4n3)CC2C1 (stereo not drawn) [Example 33, 2-{5-[(2-Thiophen-2-ylphenyl)carbonyl]hexahydropyrrolo[3,4-c]pyrrol-2(1H)-yl}quinoline] yielded a Ki of 250 nM. Work on O=C(c1ccccc1-c1cccs1)N1CC2CN(c3nccc(-c4ccco4)n3)CC2C1 (stereo not drawn) [Example 34, 2-(4-Furan-2-ylpyrimidin-2-yl)-5-[(2-thiophen-2-ylphenyl)carbonyl]octahydro-pyrrolo[3,4-c]pyrrole] yielded a Ki of 79 nM. CCc1ccccc1C(=O)N1CC2CN(c3cnc4ccccc4n3)CC2C1 (stereo not drawn) [Example 35, 2-{5-[(2-Ethylphenyl)carbonyl]hexahydropyrrolo[3,4-c]pyrrol-2(1H)-yl}quinoxaline] showed a Ki of 722 nM. In the case of O=C(c1ccccc1-c1cccs1)N1CC2CN(c3nccc(-c4cccs4)n3)CC2C1 (stereo not drawn) [Example 37, 2-[(2-Thiophen-2-ylphenyl)carbonyl]-5-(4-thiophen-2-ylpyrimidin-2-yl)octahydro-pyrrolo[3,4-c]pyrrole], the Ki is reported as 181 nM. Work on O=C(c1ccccc1-c1ccccc1)N1CC2CN(c3nccc(-c4cccs4)n3)CC2C1 (stereo not drawn) [Example 38, 2-(Biphenyl-2-ylcarbonyl)-5-(4-thiophen-2-ylpyrimidin-2-yl)octahydropyrrolo[3,4-c]pyrrole] yielded a Ki of 515 nM. In the case of Cc1cc(C)nc(N2CC3CN(C(=O)c4ccccc4-c4nccn4C)CC3C2)n1 (stereo not drawn) [Example 39, [5-(4,6-Dimethyl-pyrimidin-2-yl)-hexahydro-pyrrolo[3,4-c]pyrrol-2-yl]-[2-(1-methyl-1H-imidazol-2-yl)-phenyl]-methanone], the Ki is reported as 9000 nM. Work on O=C(c1ccccc1-c1cccc(Cl)c1)N1CC2CN(c3cnc4ccccc4n3)CC2C1 (stereo not drawn) [Example 41, 2-{5-[(3′-Chlorobiphenyl-2-yl)carbonyl]hexahydropyrrolo[3,4-c]pyrrol-2(1H)-yl}quinoxaline] yielded a Ki of 356 nM.
